Measured values from a melting point compilation (Tetko et al.; mined from patent text by program, amines drawn as free bases though some values may be those of a salt).

melting point [°C] | SMILES
101 to 105 | COC(=O)c1ccc(N2CCC[C@H](N(Cc3cc(C(F)(F)F)cc(C(F)(F)F)c3)c3nnn(C)n3)c3cc(C)c(C(F)(F)F)cc32)cc1
210 to 211 | CC(C(N)=O)c1ccc2c(c1)oc1ccc(Cl)cc12 (stereo not drawn)
75 to 75.5 | CC(C(=O)O)c1cccs1 (stereo not drawn)
46 | CCOC(=O)C1CC1C(=O)O (stereo not drawn)
56 to 58 | CCCCCCCCCC(O)Cc1ccc(O)c(O)c1 (stereo not drawn)
258 to 262 | COc1cc2c(cc1Cl)CC(=O)NN=C2c1ccc([N+](=O)[O-])cc1
109 to 111 | CNC(=C[N+](=O)[O-])NCCSCc1cc(CN2CCCC2)cs1
106 to 108 | COc1ccc(C[C@H](NC(=O)OCc2ccccc2)C(=O)O)cc1
112 to 114 | Cc1cnc2c(N)cccc2c1Cl
137 | CC(=O)OC1CSC(Oc2ccc(-c3ccoc3)cc2F)C(OC(C)=O)C1OC(C)=O (stereo not drawn)
181 to 182 | COC(=O)c1sc(C)c2nc(OC)n(Cc3ccc(-c4ccccc4C#N)cc3)c12
151 to 153 | CC(C)(C)OC(=O)N1CCc2cc(OCc3ccccc3)c(OCc3ccccc3)cc2C1Cc1ccc(NC(=O)c2ccccc2)c(I)c1 (stereo not drawn)
134 to 135 | C=CCNc1cccnc1S(N)(=O)=O
220 to 222 | CCOC(=O)c1c(N=Cc2cccs2)sc(N=Cc2ccc([N+](=O)[O-])s2)c1C(=O)OCC
144 to 146 | COc1cccc2c1CCC(COC(=O)N(c1ccccc1)c1ccccc1)C2 (stereo not drawn)
179 to 180 | O=C(NC(=O)c1ccccc1)NC1CCN(Cc2ccccc2)CC1
118 to 121 | O=C(O)C1(c2ccccc2)CCCCC1
166 to 167 | CS(=O)(=O)c1ccc(-c2cnn(Cc3ccccc3)c(=O)c2Cl)cc1
75 to 77 | COc1ccc(-c2cccc(-c3nc(C(C)C)[nH]c3-c3cccc(C)n3)c2)cc1
312 to 314 | CCC(CC)NC(=O)CCCOc1ccc2nc3[nH]c(=O)[nH]c3cc2c1
211 to 212 | FC(F)(F)c1cc(Nc2nc3ccccc3o2)ccc1Br
177 to 178 | NC(=O)c1ccnc(-c2cccc3cc(Cc4cccc(C(F)(F)F)c4)sc23)c1
309 to 310 | O=C(O)c1c2c(nc3ccc(F)cc13)-c1ccc(-c3ccccc3)cc1CC2
95 to 98 | CC(=O)SCC(Cc1ccccc1)C(=O)Nc1cc(C(=O)O)ccc1CN1CCCC1 (stereo not drawn)

melting point [°C] | SMILES
191 to 193 | CC(=O)N(CC(C)C)C1NC(=O)N(c2ccc(C(=O)O)cc2)C(=O)N1
70 to 72 | COCOc1ccc(CCCOc2c(CC(=O)O)cccc2OC)c(Oc2ccc(C(F)(F)F)cn2)c1
153 to 155 | CCCCc1ncc(C(=O)OCC)c(NCc2ccc(-c3ccccc3-c3nnn[nH]3)cc2)n1
54 to 55 | Ic1n[nH]c2ccccc12
183 | CC(C)(C)OC(=O)N[C@@H](Cc1ccccc1Cl)C(=O)NC1CCC(Nc2cccc3c2C(=O)c2ccccc2C3=O)CC1 (stereo partly drawn)
173 to 174 | COc1nc(C)c(C(C)=O)cc1NC(=O)N1CCN(c2cccc(C)c2C)CC1
244 | Nc1cc(-c2c[nH]c3ncccc23)c2ccccc2n1
153 | CC(=O)N[C@@H](C)COc1ccc2nc(-c3cc(F)c(OCC4CC4)cc3F)oc2c1F
136 to 138 | CCCn1c(COCC)nc2c(N)nc3ccc(OCCCCCCNC(=O)C(C)C)cc3c21
317 to 319 | CC(=O)Nc1nc2ccc(Cl)nc2c(=O)[nH]1
133 to 134 | Cc1ccc(C(Cl)=NNc2ccccc2)cc1
129 to 132 | CCOC(=O)c1c(S)nc(-c2ccccc2)c([N+](=O)[O-])c1C(=O)OCC
245 | Nc1nc2ccc(SSc3ccc4nc(N)[nH]c4c3)cc2[nH]1
72 | Cc1c(-c2cc(C(=O)OC(C)C)c(Cl)cc2F)nn(C)c1C(F)(F)F
83 to 85 | Cc1nc(Cl)c(C#N)nc1C
68 to 71 | CCCCCCCc1ccc(CCCC(N)(CO)CCO)cc1 (stereo not drawn)
95.9 to 96.7 | CCCCCS(=O)(=O)NC(=O)CCc1ccc(OCCOC)cc1OCc1nc(-c2ccccc2)oc1C
154 to 157 | COc1cc2c(cc1OC)CN(c1c(C)c(C)c3c(c1C)C(c1ccccc1)C(C)(C)O3)C2 (stereo not drawn)
> 268 | Oc1ccc(-c2cnc3cnc(-c4cccc(O)c4)nc3c2)cc1
116 to 119 | O=C(CS(=O)Cc1cccnc1)C12CC3CC(CC(C3)C1)C2 (stereo not drawn)
224 | CC(C)C(=O)Oc1cccc2c(-c3ccccc3)c3cccc(OC(=O)C(C)C)c3c(OC(=O)C(C)C)c12
67 to 73 | OC(CNCCCCCCOCCCCc1ccccc1)c1ccc2c(n1)COC(c1ccccc1)O2 (stereo not drawn)
26 to 27 | CCCCCCCCCCCCSCCCc1cc(C(C)(C)C)c(O)c(C(C)(C)C)c1
140 | Cc1c2c(nc3ccccc13)CCN(C(=N)N)CC2

melting point [°C] | SMILES
164 to 171 | O=C(O)C=Cc1cc([N+](=O)[O-])c(F)cc1Cl
69 to 73 | Cc1cc(NC(=O)c2cccc(CSc3cnccn3)c2)ccc1C(C)C
99 | COc1ccc(CN2C(=O)C(C)(c3cc(C(=O)N4CCCCC4C(=O)N(C)CC(F)(F)F)ccc3Cl)c3cc(Cl)ccc32)c(OC)c1 (stereo not drawn)
180 to 183 | O=C(CCC1CCCC1)N1CCN(C(=O)c2cc(C(F)(F)F)cc(C(F)(F)F)c2)[C@H](Cc2c[nH]c3ccccc23)C1
108 to 110 | CCCn1c(=O)c2c(NC(C)=O)n[nH]c2n(Cc2ccccc2)c1=O
170 to 172 | COc1ccc(-c2nc3n(c2-c2ccc(OC)cc2)Cc2ccccc2C3)cc1
195 to 198 | CC(C)(C)NCC(O)COc1cc(Cl)ccc1-c1ccc(=S)[nH]n1 (stereo not drawn)
89 to 91 | CCOc1nc2cccc(CC)c2c(=O)o1
144 to 148 | CCS(=O)CCON=Cc1nn(-c2c(Cl)cc(C(F)(F)F)cc2Cl)c(N)c1S(C)=O (stereo not drawn)
239 to 241 | Cc1nc(N)nc(N)c1-c1cc(C#N)ccc1Cl
> 300 | CCOC(=O)c1cnc2ccc3nc(Cl)sc3c2c1O
138 to 142 | O=C(C(c1ccccc1)n1cnc2[nH]ncc2c1=S)N1CCC(C2C=C(O)C=CN2)CC1 (stereo not drawn)
118 to 119 | O=C1SC[C@H]2[C@@H]1N(Cc1ccccc1)C(=O)N2Cc1ccccc1 (relative stereo)
138 | CCCCOc1ccc(C(=O)Nc2ccc3cc(CN4CCCC4)cnc3c2C)c(F)c1
193 to 194 | Cc1nccn1-c1ccc(NC(=O)CCc2cnoc2-c2ccc(Cl)cc2)cn1
80 to 81 | O=S(=O)(Oc1ccc2ncc3c(c2c1)CCCC3)C(F)(F)F
215 to 216 | Oc1ccc2nscc2c1
169 to 171 | Nc1c[nH]c(=S)n1C1CCc2ccccc2C1 (stereo not drawn)
140 | CN[C@@H]1COc2cc(Cl)cc(-c3ccc(Cl)cc3Cl)c2O1
231 to 232 | Cc1ccc(S(=O)(=O)NCCCn2c(CCO)nc3c(N)nc4ccccc4c32)cc1
70 to 73 | Fc1ccc2[nH]cc(CCCNCCOc3cccc4[nH]ccc34)c2c1
154 to 155 | CCCOC(=O)Nc1ccc(NCc2cc(Cl)cc(Cl)c2)cc1N
155 to 157 | CCNC(=O)N(C)c1ccc(C(O)(C(F)(F)Cl)C(F)(F)Cl)cc1
221 | CC(C)(C)OC(=O)N1CCC(OCc2ccccc2)C1CC(O)Cn1cnc2ccncc2c1=O (stereo not drawn)

melting point [°C] | SMILES
176 to 178 | O=C(Nc1ccc(OCc2ccncc2)c2ccccc12)c1cc(F)cc(OC2CCCCC2)c1
229 to 230 | Cc1cc(-c2nc3cccnn3c2-c2ccnc(NC(=O)c3cnccn3)c2)ccc1F
173 to 175 | O=C1N(Cc2ccc(C(F)F)o2)c2ccccc2C12COc1cc3c(cc12)OCCO3 (stereo not drawn)
255 to 257 | c1ccc(-c2nnc3n2-c2ccccc2Cn2cccc2-3)nc1
185 | Cc1nc2c(o1)CCc1ccccc1C2=Cc1cccc(NS(C)(=O)=O)c1
262 to 263 | Oc1ccc(C2(c3ccc(O)cc3)CCC(c3ccccc3)CC2)cc1
181 to 182 | CCCOc1ccc(/C=C/C(=O)OC(C)(C)C)cc1-c1nc2c(c(C)nn2CCC)c(=O)[nH]1
95.5 to 96 | COC(=O)c1ccc(CCCCO)cc1
127 to 129 | CCC(CC)Nc1nc(Cc2cc(OC)c(OC)c(OC)c2)nc2sc(C#N)c(C)c12
104 to 106 | NCC(O)(CCc1ccccc1)CCc1ccccc1
229 to 240 | COc1cc(C(=O)O)cc2c1oc1ccccc12
229 to 232 | O=c1c(-c2cccc(F)c2)c(CNc2ncnc3[nH]cnc23)oc2ccc(F)cc12
180 to 181 | CCC1(CC)OC(=S)Nc2ccc(-c3cccc([N+](=O)[O-])c3)cc21
83.4 to 84.2 | O=C(NCC1(c2nc(C3CC3)cs2)CC1)c1ccccc1C(F)(F)F
64 to 66 | COc1c2c(c(OC)c(OC)c1OC)CCC(CCO)CC2
210 to 213 | Cc1c(C(=O)Nc2ccc(N3CCC(N(C)C)CC3)c(C#N)c2)cnn1-c1ccc(Cl)cc1
58 | CC[C@H](NC(=O)OC(C)(C)C)C(=O)OCCCCNc1cccc2c1C(=O)c1ccccc1C2=O
92.5 to 93.5 | COc1ccc2c(c1)CCN2c1cccc(C#N)c1
139 to 140 | CCNC(=O)c1c(Cl)cccc1NC(C)(C)C
105 to 108 | CC(C)(ON1C(C)(C)CC(OC(=O)c2ccccc2)CC1(C)C)c1ccccc1
175 to 176 | O=C1NC(=O)C(CCc2ccc(O)cc2)S1 (stereo not drawn)
177 to 182 | CC12CCC(OC(=O)c3ccc(O)cc3)CC1=CCC1C2CCC2(C)C(=NO)CCC12 (stereo not drawn)
137 to 138 | O=C(O)CCC(=O)c1cc(Br)cc(Br)c1
178 to 179 | COc1cc(CCCC2OC(=O)NC2=O)ccc1OCc1coc(/C=C/c2ccccc2)n1 (stereo not drawn)

SMILES | melting point [°C]
Cc1cc(C)c2nc(N(CC(C)N3CCOCC3)C3CCNCC3)n(Cc3nc(C)ccc3O)c2c1 (stereo not drawn) | 223
CCCCCCc1cc2c(s1)-n1c(C)nnc1CN=C2c1cc(C)ccc1C | 81 to 84
